Reference: US8673652B2, “Immunoassay with extended detection window” (priority 2010, dated 2014)
In brackets after ≈: the same amount, converted by molar mass.

Tests used:
[1] = test system: polyclonal antibody raised against zolpidem analogue derivatised at the 4'-phenyl ring coupled to BTG; assay: Competitive ELISA for zolpidem (antibody specificity and sensitivity); type: binding, sheep; conditions: for IC50 (ng/ml) / IC50: competitive ELISA, hapten-HRP conjugate, absorbance at 450 nm; for % CR = percentage cross-reactivity based on 100% specificity to zolpidem: relative to zolpidem = 100%
Description: Analogues of zolpidem derivatised at the 4′-phenyl ring were coupled by way of a crosslinker to bovine thyroglobulin (BTG). The resulting immunogens were administered separately to adult sheep on a monthly basis to provide target-specific polyclonal antisera. IgG was extracted from the antisera via caprylic acid/ammonium sulphate precipitation of immunoglobulin. Microtitre plates were coated with antibody (125 μl/well) in coating buffer (10 mM Tris pH 8.5) at 37° C. for 2 h. The plates were then washed 4 times over 10 mins with working strength TBST. 50 μl of sample/standard (zolpidem, Sequioa SRP00500z; alpidem, TRC A575560; zaleplon, Sequioa SRP00300z; zopiclone, Sequioa SRP02000z; zolpidem Carboxylic Acid, Randox LK865 and zolpidem carboxylic acid, Randox LK855) was added to the appropriate wells in triplicate, followed by 75 μl of hapten-HRP conjugate and incubated at 25° C. for 1 h. The plates were then washed and 125 μl of TMB (Randox, 4380-15) was added to each well and left at room temperature for 20 mins in the dark. The reaction was stopped using 125 μl of 0.2M sulphuric acid. The absorbances were read at 450 nm with an ELISA microplate reader (BIO-TEK Instruments, Elx800) and the means calculated. Antibody specificity and sensitivity were then determined.
Competitive ELISA results in Table 1 and FIG. 3 highlight the specificity of the antibody of the disclosure towards zolpidem and cross-reactivity towards 4-[3-(2-N,N-dimethylamino-2-oxoethyl)-6-methylimidazo[1,2-a]pyridin-2-yl]benzoic acid. […] The disclosure, through its unique immunogens and antibodies, thus enables methods and kits able to detect and determine zolpidem and/or 4-[3-(2-N,N-dimethylamino-2-oxoethyl)-6-methylimidazo[1,2-a]pyridin-2-yl]benzoic acid with high sensitivity.

[2] = cited from earlier work

Row | Compound | IC50 (ng/ml) [1] | % CR = percentage cross-reactivity based on 100% specificity to zolpidem [1] | share of metabolite produced by cytochrome P450 mediated metabolism of zolpidem ([2]; metabolism mediated by cytochrome P450) | IC50 [1] | half-life ([2]; upon ingestion)
1 | CCCN(CCC)C(=O)Cc1c(-c2ccc(Cl)cc2)nc2ccc(Cl)cn12 [Alpidem, alpidem] | >>50 ng/ml | <<1.26% | – | – | –
2 | Cc1ccc2nc(-c3ccc(C(=O)O)cc3)c(CC(=O)N(C)C)n2c1 [Hapten M1, 4-[3-(2-N,N-dimethylamino-2-oxoethyl)-6-methylimidazo[1,2-a]pyridin-2-yl]benzoic acid] | – | 18.6% | more than 80% | 3.33 ng/mL (≈ 9.87 nM) | –
3 | Cc1ccc(-c2nc3ccc(C(=O)O)cn3c2CC(=O)N(C)C)cc1 [Hapten M2, 3-(2-N,N-dimethylamino-2-oxoethyl)-2-(4-methylphenyl)imidazo[1,2-a]pyridin-6-yl carboxylic acid] | – | <0.13% | – | >500 ng/mL | –
4 | CCN(C(C)=O)c1cccc(-c2ccnc3c(C#N)cnn23)c1 [Zaleplon, zaleplon] | >>50 ng/ml | <<1.26% | – | – | –
5 | Cc1ccc(-c2nc3ccc(C)cn3c2CC(=O)N(C)C)cc1 [Zolpidem, N,N-dimethyl-2-[6-methyl-2-(4-methylphenyl)imidazo[1,2-a]pyridin-3-yl]acetamide] | – | 100% | – | 0.63 ng/mL (≈ 2.05 nM) | 1.5 to 3 h
6 | CN1CCN(C(=O)OC2c3nccnc3C(=O)N2c2ccc(Cl)cn2)CC1 (centres unmarked) [Zopiclone, zopiclone] | >>50 ng/ml | <<1.26% | – | – | –
